Here are results for 15 molecules from patent US6608027B1, “Macrocyclic peptides active against the hepatitis C virus” (Boehringer Ingelheim (Canada) Ltd, priority 1999, dated 2003).

Some results are limits rather than exact numbers.

Tested on in one data set: not given
Assay: not given
Conditions: from C=CCCCCC[C@H](NC(=O)OC(C)(C)C)C(=O)N1C[C@@H](O)C[C@H]1C(=O)N[C@]1(C(=O)OC)CC1C=C; rcm bond; Hoveyda's catalyst; CH2Cl2; 9.85 mM; 40.0 °C; 28.0 h.
`COC(=O)[C@@]12CC1C=CCCCCC[C@H](NC(=O)OC(C)(C)C)C(=O)N1C[C@@H](O)C[C@H]1C(=O)N2` (stereo partly drawn) registered a ring closure, yield of all isomers of 89%.

The same data set, now with this note: from COC(=O)[C@@]1(NC(=O)[C@@H]2C[C@@H](Oc3cc(-c4ccccc4)nc4cc(OC)ccc34)CN2C(=O)[C@H](CCNC(=O)OCc2ccccc2)NC(=O)OC(C)(C)C)C[C@H]1CCCC=O; amine bond; H2, Pd(OH)2, AcOH; ethanol; 44.0 mM; 25.0 °C; 40.0 h; 2 steps.
Molecule `COC(=O)[C@@]12C[C@H]1CCCCNCC[C@H](NC(=O)OC(C)(C)C)C(=O)N1C[C@H](Oc3cc(-c4ccccc4)nc4cc(OC)ccc34)C[C@H]1C(=O)N2` registered a ring closure, yield of all isomers of 30%.

The target of another data set is HCV NS3 protease type 1b (Hepatitis C virus genotype 1b, UniProt P26663). In words: Recombinant HCV NS3 protease radiometric assay. Type of data set: biochemical.
HCV NS3 protease type 1b, sequence (P26663 1027-1208): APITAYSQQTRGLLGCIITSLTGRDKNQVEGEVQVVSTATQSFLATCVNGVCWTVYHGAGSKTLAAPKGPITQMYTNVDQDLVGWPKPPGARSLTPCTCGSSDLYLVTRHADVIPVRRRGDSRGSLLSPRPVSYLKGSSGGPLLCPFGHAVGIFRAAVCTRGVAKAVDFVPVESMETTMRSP
Details: not given
The method, then:
The substrate used for the HCV NS3 protease radiometric assay, DDIVPC-SMSYTW (SEQ. ID NO.: 2), is cleaved between the cysteine and the serine residues by the enzyme. The sequence DDIVPC-SMSYTW (SEQ. ID NO.: 2) corresponds to the NS5A/NS5B natural cleavage site in which the cysteine residue in P2 has been substituted for a proline. The peptide substrate DDIVPC-SMSYTW (SEQ. ID NO.: 2) and the tracer biotin-DDIVPC-SMS[^125I-Y]TW (SEQ. ID NO.: 3) were incubated with the recombinant NS3 protease in the absence or in the presence of inhibitors. The separation of substrate from products was performed by adding avidin-coated agarose beads to the assay mixture followed by filtration. The amount of SMS[^125I-Y]TW (SEQ. ID NO.: 4) product found in the filtrate (with or without inhibitor) allowed for the calculation of the percentage of substrate conversion and of the percentage of inhibition.
Assay buffer: 50 mM Tris-HCl, pH 7.5, 30% (w/v) glycerol, 2% (w/ v) CHAPS, 1 mg/mL BSA, 1 mM TCEP (TCEP added just prior to use from a 1 M stock solution in water).
Substrate: DDIVPC-SMSYTW (SEQ. ID NO.: 2), 25 μM final concentration (from a 2 mM stock solution in DMSO stored at −20° C. to avoid oxidation).
Tracer: reduced mono-iodinated substrate(biotin-DDIVPC-SMS[^125I-Y]TW (SEQ. ID NO.: 3)) (≈1 nM final concentration).
HCV NS3 protease type 1b, 25 nM final concentration (from a stock solution in 50 mM sodium phosphate, pH 7.5, 10% glycerol, 300 mM NaCl, 5 mM DTT, 0.01% NP-40).
The assay was performed in a 96-well polypropylene plate. Each well contained:
20 μL substrate/tracer in assay buffer;
10 μL±inhibitor in 20% DMSO/assay buffer;
Blank (no inhibitor and no enzyme) and control (no inhibitor) were also prepared on the same assay plate.
The enzymatic reaction was initiated by the addition of the enzyme solution and the assay mixture was incubated for 60 min at 23° C. under gentle agitation. Twenty (20) μL of 0.025 N NaOH were added to quench the enzymatic reaction.
Twenty (20) μL of avidin-coated agarose beads (purchased from Pierce®) were added in a Millipore® MADP N65 filtration plate. The quenched assay mixture was transferred to the filtration plate, and incubated for 60 min at 23° C. under gentle agitation.
The plates were filtered using a Millipore® MultiScreen Vacuum Manifold Filtration apparatus, and 40 μL of the filtrate was transferred to an opaque 96-well plate containing 60 μL of scintillation fluid per well.
The filtrates were counted on a Packard® TopCount instrument using a ^125I-liquid protocol for 1 minute. The %inhibition was calculated with the following equation:
100−[(countsinh−countsblank)/(countsctl−countsblank)×100] […]
In the case of `COc1ccc2c(O[C@@H]3C[C@H]4C(=O)N[C@@]5(C(=O)O)C[C@@H]5/C=C\CCCCC[C@H](NC(=O)OC(C)(C)C)C(=O)N4C3)cc(-c3ccccc3)nc2c1` [Compound 210], the IC50 (usually the concentration needed to halve the response being measured) is over 1000 nM.

Still in this data set, the particulars now being: asterisk (*) = radiometric assay of Example 49; read-out: enzyme activity (IC50 grade), asterisk.
Turning to `COc1ccc2c(O[C@@H]3C[C@H]4C(=O)N[C@]5(C(=O)O)C[C@@H]5CCCCC[C@H](NC(=O)OC(C)(C)C)C(=O)N4C3)cc(-c3ccccc3)nc2c1` [Compound 306], the IC50 is over 1000 nM.

As to `COc1ccc2c(O[C@@H]3C[C@H]4C(=O)N[C@]5(C(=O)O)C[C@H]5CC/C=C\CS[C@@H](C)[C@H](NC(=O)OC(C)(C)C)C(=O)N4C3)cc(-c3ccccc3)nc2c1` [Compound 411], the IC50 was over 1000 nM.

Regarding `COc1ccc2c(O[C@@H]3C[C@H]4C(=O)N[C@]5(C(=O)O)C[C@H]5CCN(C)CCCC[C@H](NC(=O)OC(C)(C)C)C(=O)N4C3)cc(-c3ccccc3)nc2c1` [Cpd 504], the IC50 was over 1000 nM.

For another data set, the target named is T1, His-NS3-NS4AFL (full-length NS3-NS4A protein complex) (Hepatitis C virus genotype 1b, UniProt P26663).
T1 construct: made in house; host or cells: Sf21 insect cells, recombinant baculovirus (Bac-to-Bac, pFastBac HTa)
T1 sequence (P26663 1658-1711): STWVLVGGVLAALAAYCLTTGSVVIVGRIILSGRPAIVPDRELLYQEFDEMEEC
T1 sequence (P26663 1027-1657): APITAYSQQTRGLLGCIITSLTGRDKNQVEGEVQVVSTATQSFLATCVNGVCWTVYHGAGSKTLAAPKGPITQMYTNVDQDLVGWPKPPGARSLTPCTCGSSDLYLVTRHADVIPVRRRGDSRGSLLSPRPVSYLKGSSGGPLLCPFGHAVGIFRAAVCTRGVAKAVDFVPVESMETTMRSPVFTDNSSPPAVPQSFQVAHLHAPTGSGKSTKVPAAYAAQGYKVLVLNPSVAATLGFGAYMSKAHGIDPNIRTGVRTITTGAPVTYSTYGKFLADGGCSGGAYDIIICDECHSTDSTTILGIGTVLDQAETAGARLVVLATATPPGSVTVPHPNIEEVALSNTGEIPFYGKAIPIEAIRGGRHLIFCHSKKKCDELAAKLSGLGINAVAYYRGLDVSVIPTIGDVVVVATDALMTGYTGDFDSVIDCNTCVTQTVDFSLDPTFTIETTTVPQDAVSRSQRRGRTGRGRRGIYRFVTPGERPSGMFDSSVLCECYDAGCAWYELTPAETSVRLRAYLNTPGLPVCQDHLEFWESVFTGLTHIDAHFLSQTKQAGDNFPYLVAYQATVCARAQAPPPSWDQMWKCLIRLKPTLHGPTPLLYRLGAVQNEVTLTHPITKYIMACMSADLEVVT
In words: Full-length NS3-NS4A heterodimer protein fluorogenic assay. Type of data set: biochemical, HCV genotype 1b. Conditions: fluorogenic assay of Example 48; no asterisk; read-out: enzyme activity (IC50 grade). The source says:
The NS2-NS5B-3′non coding region was cloned by RT-PCR into the pCR®3 vector (Invitrogen) using RNA extracted from the serum of an HCV genotype 1b infected individual (provided by Dr. Bernard Willems, Hôpital St-Luc, Montréal, Québec, Canada). The NS3-NS4A region (NS3-NS4AFL) was then subcloned by PCR into the pFastBac™ HTa baculovirus expression vector (Gibco/BRL). The vector sequence includes a region encoding a 28-residue N-terminal sequence which contains a hexahistidine tag. The Bac-to-Bac™ baculovirus expression system (Gibco/BRL) was used to produce the recombinant baculovirus. His-NS3-NS4AFL was expressed by infecting 10^6 Sf21 cells/mL with the recombinant baculovirus at a multiplicity of infection of 0.1-0.2 at 27°. Authentic auto-proteolysis occurs during expression to produce a non covalent and stable NS3-NS4A protein complex (referred to as full-length “FL”). The infected culture was harvested 48 to 64 h later by centrifugation at 4°. The cell pellet was homogenized in 50 mM NaPO4, pH 7.5, 40% glycerol (w/v), 2 mM β-mercaptoethanol, in presence of a cocktail of protease inhibitors. His-NS3-NS4AFL was then extracted from the cell lysate with 1.5% NP-40, 0.5% Triton X-100, 0.5M NaCl, and a DNase treatment. After ultracentrifugation, the soluble extract was diluted 4-fold and bound on a Pharmacia Hi-Trap Ni-chelating column. The His-NS3-NS4AFL was eluted in a >90% pure form (as judged by SDS-PAGE), using a 50 to 400 mM imidazole gradient. The His-NS3-NS4AFL was stored at −80° in 50 mM sodium phosphate, pH 7.5, 10% (w/v) glycerol, 0.5 M NaCl, 0.25 M imidazole, 0.1% NP-40. It was thawed on ice and diluted just prior to use.
The protease activity of His-NS3-NS4AFL was assayed in 50 mM Tris-HCl, pH 8.0, 0.25 M sodium citrate, 0.01% (w/v) n-dodecyl-β-D-maltoside, 1 mM TCEP. Five (5) μM of the internally quenched substrate anthranilyl-DDIVPAbu[C(O)—O]-AMY(3-NO2)TW-OH (SEQ. ID NO.: 1) in presence of various concentrations of inhibitor were incubated with 1.5 nM of His-NS3-NS4AFL for 45 min at 23°. […] The reaction was terminated with the addition of 1M MES, pH 5.8. Fluorescence of the N-terminal product was monitored on a Perkin-Elmer LS-50B fluorometer equipped with a 96-well plate reader (excitation wavelength: 325 nm, emission wavelength: 423 nm).
The % inhibition was calculated with the following equation:
100−[(fluoinh−fluoblank)/(fluoctl−fluoblank)×100]
A non-linear curve fit with the Hill model was applied to the inhibition-concentration data, and the 50% effective concentration (IC50) was calculated by the use of SAS software (Statistical Software System; SAS Institute, Inc. Cary, N.C.).
As to `COc1ccc2c(OC3CC4C(=O)NC5(C(=O)O)CC5CCC=CCOCC(NC(=O)OC(C)(C)C)C(=O)N4C3)cc(-c3ccccc3)nc2c1` (stereo not drawn) [Compound 403], the IC50 was under 100 nM.

Take `COc1ccc2c(O[C@@H]3C[C@H]4C(=O)N[C@]5(C(=O)O)CC5CC/C=C/CO[C@H](C)[C@H](NC(=O)OC(C)(C)C)C(=O)N4C3)cc(-c3ccccc3)nc2c1` (stereo partly drawn) [Compound 404]: the IC50 is 100 to 1000 nM.

Consider `COc1ccc2c(O[C@@H]3C[C@H]4C(=O)N[C@]5(C(=O)O)CC5CCCCCO[C@H](C)[C@H](NC(=O)OC(C)(C)C)C(=O)N4C3)cc(-c3ccccc3)nc2c1` (stereo partly drawn) [Compound 407], for which the IC50 fell in the range of 100 to 1000 nM.

Take `COc1ccc2c(O[C@@H]3C[C@H]4C(=O)N[C@]5(C(=O)O)C[C@H]5CC/C=C/CS[C@@H](C)[C@H](NC(=O)OC(C)(C)C)C(=O)N4C3)cc(-c3ccccc3)nc2c1` [Compound 410]: the IC50 was under 100 nM.

For the molecule `COc1ccc2c(OC3CC4C(=O)NC5(C(=O)O)CC5CCC=CCSC(C)(C)C(NC(=O)OC(C)(C)C)C(=O)N4C3)cc(-c3ccccc3)nc2c1` (stereo not drawn) [Compound 412], the IC50 is over 1000 nM.

Take `COc1ccc2c(O[C@@H]3C[C@H]4C(=O)N[C@]5(C(=O)O)CC5CCCCN(C(C)=O)CC[C@H](NC(=O)OC(C)(C)C)C(=O)N4C3)cc(-c3ccccc3)nc2c1` (stereo partly drawn) [Compound 508]: the IC50 is under 100 nM.

For `CC(=O)Nc1nc(-c2cc(O[C@@H]3C[C@H]4C(=O)N[C@]5(C(=O)O)C[C@H]5/C=C\CCCCC[C@H](NC(=O)OC(C)(C)C)C(=O)N4C3)c3ccc(N(C)C)cc3n2)cs1` [Compound 601], the IC50 is under 100 nM.

In the case of `CC(C)(C)OC(=O)N[C@H]1CCCCC/C=C\[C@@H]2C[C@@]2(C(=O)O)NC(=O)[C@@H]2C[C@@H](Oc3cc(C(F)(F)F)nc4cc(O)ccc34)CN2C1=O` [Compound 602], the IC50 is under 100 nM.

In the case of `COc1ccc2c(O[C@@H]3C[C@H]4C(=O)N[C@]5(C(=O)O)C[C@H]5/C=C\CCCCC[C@H](NC(=O)OC(C)(C)C)C(=O)N4C3)cc(-c3cnco3)nc2c1` [Compound 603], the IC50 was under 100 nM.
